Laboratory results reported in PMC3602187, “From Design to Screening: A New Antimicrobial Peptide Discovery Pipeline” (PLoS ONE, 2013).
Where a SMILES comes first, the peptide text is derived from it.

What follows are molecules tested on Listeria innocua 33090 (assay: colony overlay assay of peptide-secreting E. coli clones (library screening and re-test)). Conditions: library screening; selected colonies pooled by zone size; peptides identified by 454 sequencing, full-length sequences with minimum 20 reads.
Assay type: cell-based
Design: key: higher activity group (H); equal activity group (E); lower activity group (L)
In short: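 Pln-423 mutant library expressed periplasmically in leaky E. coli JE5505 (pFLAG-CTS); colonies grown 24 h at 37°C, then overlaid with TSB soft agar containing 1 mM IPTG and L. innocua ATCC 33090 (OD600 = 0.03) and incubated overnight at 30°C. Activity scored by inhibition-zone size versus wild-type Pln-423; hits re-tested after 4 h regrowth.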

Molecule	activity group by size of inhibition zone compared to wild-type Pln-423
KYYGNGVTCGKHSCSVNWGQAFSCSVDHLANFGHGHC* [Pep-2_11750]	H
KYYGNGVTCGKHSCSVNWGQAFSCSVSNLANFGHGKC* [Pep-1_63]	E
KYYGNGVTCGKHSCSVNWGQAFSCSVEHLANFGHAKC* [Pep-2_6071]	E
KYYGNGVTCGKHSCSVNWGQAFSCVVSHLANFGHGKC* [Pep-1_46]	L
KYYGNGVTCGKHSCSVNWGQAFSCSVSWLANFGHGKC* [GROUP L-UM-12]	L
KYYGNGVTCGKHSCSVNWGQAFSCSVAHFANLGHGKC* [GROUP L-UM-30]	L
KYYGNGVTCGKHSCSVNWGQAFSCVVSHIANFGHGKC* [Pep-2_4954]	L
KYYGNGVTCGKHSCSVNWGQAFACSVSHLANFGHGFC* [Pep-2_3808]	L and E
KYYGNGVTCGKHSCSVNWGQAFSCSVEHLANFGHGGC* [Pep-2_6077]	E and H
KYYGNGVTCGKHSCSVNWGQAFACSVSHLANFGHGWC* [Pep-2_12269]	L
KYYGNGVTCGKHSCSVNYGQLFSCSVSHLANFGHGKC* [GROUP L-UM-22]	L
KYYGNGVTCGKHSCSVNWGQAFSCSVSHLANFGHGEC* [Pep-1_110]	H
KYYGNGVTCGKHSCSVNWGQAFSCSVSHLANFGHGSC* [Pep-1_111]	L and E
KYYGNGVTCGKHSCSVNWGQAFECRVSHLANFGHGKC* [Pep-2_3415]	L and H
KYYGNGVTCGKHSCSVNWGQAFSCSVSVLANFGHGNC* [Pep-2_6939]	L
KYYGNGVTCGKHSCSVNWGQAFSCSVSHLAWFGHGKC* [Pep-1_84]	L
KYYGNGVTCGKHSCSVNWGQAFSCSVSRLAAFGHGKC* [Pep-2_6587]	L
KYYGNGVTCGKHSCSVNWGQAFSCSVSKMANFGHGKC* [Pep-2_7543]	L

Molecule	activity group by size of inhibition zone compared to wild-type Pln-423
KYYGNGVTCGKHSCSVNWGQAFACSVSHLANFGHGHC* [Pep-2_11729]	L
KYYGNGVTCGKHSCSVNWGQAFSCMVSHLANGGHGKC* [Pep-2_9580]	L
KYYGNGVTCGKHSCSVNWGQWFSCSVSHLANFGMGKC* [Pep-2_10746]	L
KYYGNGVTCGKHSCSVNWGQAFSCSVMHLANFGHGKC* [GROUP L-UM-16]	L
KYYGNGVTCGKHSCSVNWGVAFSCSVSHLANFGHGYC* [Pep-2_1755]	L
KYYGNGVTCGKHSCSVNWGQAFSCSVSHLANFGHGLC* [Pep-1_112]	L
KYYGNGVTCGKHSCSVNWAQAFSCSVVHLANFGHGKC* [Pep-2_6197]	L
KYYGNGVTCGKHSCSVNWGQAFSCSVLHLANFGHGKC* [GROUP L-UM-20]	L
KYYGNGVTCGKHSCSVNWGQAFSCAVSHLANFGHHKC* [Pep-2_5095]	L
KYYGNGVTCGKHSCSVNWGQAFSCSVRHLANFGHGEC* [Pep-2_11857]	L
KYYGNGVTCGKHSCSVNWGGAFSCSVSHLANFGHGWC* [Pep-2_12251]	L
KYYGNGVTCGKHSCSVNWGQAFSCSVDHLANFGHGKC* [GROUP H-UM-2]	H
KYYGNGVTCGKHSCSVNWGQAFECSVSHLANFGMGKC* [Pep-2_10754]	E
KYYGNGVTCGKHSCSVNWAQAFSCNVSHLANFGHGKC* [Pep-2_4793]	L
KYYGNGVTCGKHSCSVNWGQAFSCFVSRLANFGHGKC* [Pep-2_6556]	L
KYYGNGVTCGKHSCSVNWGQAFSCSVSKLAHFGHGKC* [Pep-2_8515]	L
KNYGNGVTCGKHSCSVNWGQAFSCSVEHLANFGHAKC* [GROUP E-UM-10]	E

Each molecule was assayed on Listeria innocua 33090 (assay: MIC determination / agar spot assay of synthetic peptides). Conditions: synthetic peptides.
Assay type: cell-based
Method: Synthetic samples of wild-type Pln-423, two variants Pln-S23E and Pln-H28R/H34E from this study (Pln-4 and Pln-7 on Fig. 2), and another high-activity variant Pln-S27D/K36N (discovered during a pilot study, data not shown) were tested on agar plates at varying concentrations.
MICs were determined as previously described, [35]. Synthetic peptides were obtained from Peptide 2.0, Inc. (Chantilly, VA) and dissolved in 0.1% acetic acid/water solution at the final concentration of 2.5 mg/ml. Listeria innocua 33090 was grown in TSB until the turbidity of the culture match that of McFarland standard 0.5 (∼OD600 = 0.11) and diluted to final concentration of 5×10^5 cfu/ml in 20 ml TSB soft agar (1.2%) per plate. Two-fold serial dilutions (starting at 128 µg/ml) for each peptide was carried out in ultra-pure deionized water and 5 µl aliquots of each dilution were spotted on TSB plates. After the plates were incubated for 1 h at room temperature, they were placed at 37°C for overnight incubation. This experiment was performed in triplicate and the MIC was calculated as the lowest peptide concentration that formed a visible growth inhibition zone.

Molecule	MIC fold lower than wild-type Pln-423 [fold]
CC(C)C[C@H](NC(=O)[C@H](CCCNC(=N)N)NC(=O)[C@H](CO)NC(=O)[C@@H](NC(=O)[C@H](CO)NC(=O)[C@H](CS)NC(=O)[C@H](CO)NC(=O)[C@H](Cc1ccccc1)NC(=O)[C@H](C)NC(=O)[C@H](CCC(N)=O)NC(=O)CNC(=O)[C@H](Cc1c[nH]c2ccccc12)NC(=O)[C@H](CC(N)=O)NC(=O)[C@@H](NC(=O)[C@H](CO)NC(=O)[C@H](CS)NC(=O)[C@H](CO)NC(=O)[C@H](Cc1c[nH]cn1)NC(=O)[C@H](CCCCN)NC(=O)CNC(=O)[C@H](CS)NC(=O)[C@@H](NC(=O)[C@@H](NC(=O)CNC(=O)[C@H](CC(N)=O)NC(=O)CNC(=O)[C@H](Cc1ccc(O)cc1)NC(=O)[C@H](Cc1ccc(O)cc1)NC(=O)[C@@H](N)CCCCN)C(C)C)[C@@H](C)O)C(C)C)C(C)C)C(=O)N[C@@H](C)C(=O)N[C@@H](CC(N)=O)C(=O)N[C@@H](Cc1ccccc1)C(=O)NCC(=O)N[C@@H](CCC(=O)O)C(=O)NCC(=O)N[C@@H](CCCCN)C(=O)N[C@@H](CS)C(=O)O [PLN-H28R/H34E] (H-KYYGNGVTCGKHSCSVNWGQAFSCSVSRLANFGEGKC-OH; N-terminus and C-terminus assumed)	2
CC(C)C[C@H](NC(=O)[C@H](Cc1c[nH]cn1)NC(=O)[C@H](CC(=O)O)NC(=O)[C@@H](NC(=O)[C@H](CO)NC(=O)[C@H](CS)NC(=O)[C@H](CO)NC(=O)[C@H](Cc1ccccc1)NC(=O)[C@H](C)NC(=O)[C@H](CCC(N)=O)NC(=O)CNC(=O)[C@H](Cc1c[nH]c2ccccc12)NC(=O)[C@H](CC(N)=O)NC(=O)[C@@H](NC(=O)[C@H](CO)NC(=O)[C@H](CS)NC(=O)[C@H](CO)NC(=O)[C@H](Cc1c[nH]cn1)NC(=O)[C@H](CCCCN)NC(=O)CNC(=O)[C@H](CS)NC(=O)[C@@H](NC(=O)[C@@H](NC(=O)CNC(=O)[C@H](CC(N)=O)NC(=O)CNC(=O)[C@H](Cc1ccc(O)cc1)NC(=O)[C@H](Cc1ccc(O)cc1)NC(=O)[C@@H](N)CCCCN)C(C)C)[C@@H](C)O)C(C)C)C(C)C)C(=O)N[C@@H](C)C(=O)N[C@@H](CC(N)=O)C(=O)N[C@@H](Cc1ccccc1)C(=O)NCC(=O)N[C@@H](Cc1c[nH]cn1)C(=O)NCC(=O)N[C@@H](CC(N)=O)C(=O)N[C@@H](CS)C(=O)O [PLN-S27D/K36N] (H-KYYGNGVTCGKHSCSVNWGQAFSCSVDHLANFGHGNC-OH; N-terminus and C-terminus assumed)	2
